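Where inhibition never reached the appropriate level, the endpoint shown equals the highest concentration tested. Otherwise, values were interpolated linearly from a five-concentration, 48-hour dose response in 96-well plates. Here, GI50 denotes the concentration required for 50% inhibition of growth. TGI is the concentration that stops growth completely.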

Test systems include OVCAR-8 ovarian; KM12 colon; NCI-H226 lung; MOLT-4 leukemia; UO-31 renal; 786-0 renal; TK-10 renal; RXF 393 renal; LOX IMVI melanoma; HOP-92 NSCLC.
Holding throughout (experiment): NCI anticancer screen, dose series, 48 h

For `Cc1cc(C)cc(-n2c3nc(=O)n(C)c(=O)c-3nc3ccccc32)c1`, the TGI with OVCAR-8 ovarian was more than 100 µM; in the assay with KM12 colon, more than 100 µM; in the assay on NCI-H226 lung it was more than 100 µM; in the assay on MOLT-4 leukemia, 52.4 µM; in the assay on UO-31 renal it was more than 100 µM; in the assay on 786-0 renal it was more than 100 µM. For the same compound, the TGI in the assay with TK-10 renal is more than 100 µM; in the assay on RXF 393 renal, more than 100 µM; in the assay with LOX IMVI melanoma it was 91.8 µM.

As for `C/C(=C\c1ccc(Cl)cc1)C(C)(C)C(=O)O`, the TGI in the assay on OVCAR-8 ovarian, with KM12 colon, in the assay with NCI-H226 lung, with HOP-92 NSCLC, in the assay on MOLT-4 leukemia and in the assay with UO-31 renal was more than 100 µM throughout. For the same compound, the TGI with 786-0 renal, in the assay with TK-10 renal and in the assay on RXF 393 renal was more than 100 µM each time.

Consider `CC1(C)N=C(N)N=C(N)N1c1cccc(C#N)c1`, for which the GI50 with OVCAR-8 ovarian was 0.599 µM; in the assay with KM12 colon, 7.37 µM; with NCI-H226 lung, 7.07 µM; in the assay on MOLT-4 leukemia, 3.21 µM; in the assay on UO-31 renal, 5.9 µM; with 786-0 renal, 0.578 µM. For the same compound, the GI50 in the assay on TK-10 renal is 18.2 µM; in the assay on RXF 393 renal, 4.33 µM; in the assay with LOX IMVI melanoma, 0.605 µM. Moreover, the TGI with OVCAR-8 ovarian, in the assay on KM12 colon, in the assay on NCI-H226 lung, with MOLT-4 leukemia, in the assay on UO-31 renal and in the assay on 786-0 renal was more than 100 µM each time. Also, the TGI in the assay with TK-10 renal, in the assay with RXF 393 renal and in the assay with LOX IMVI melanoma was more than 100 µM throughout.

On to `O=NC1c2cccc3cccc(c23)C1N=O` (centres undefined), for which the TGI in the assay with OVCAR-8 ovarian was 6.65 µM; in the assay with KM12 colon it was 17 µM; in the assay with HOP-92 NSCLC, 24.5 µM; with MOLT-4 leukemia, more than 100 µM; in the assay on UO-31 renal, 11.7 µM; with 786-0 renal, 30.5 µM. For the same compound, the values for the TGI in the assay on TK-10 renal, in the assay on RXF 393 renal and with LOX IMVI melanoma were 37.1 µM, 14.1 µM and 5.6 µM, respectively.

As for `CC1(O)C=CC2CCC1C2O` (centres undefined), the TGI with OVCAR-8 ovarian was more than 100 µM; in the assay with KM12 colon, more than 100 µM; in the assay with NCI-H226 lung, more than 100 µM; in the assay with MOLT-4 leukemia it was more than 100 µM; in the assay with UO-31 renal it was more than 100 µM; in the assay on 786-0 renal, 75.5 µM. The TGI was more than 100 µM in the assay on TK-10 renal, more than 100 µM with RXF 393 renal and 35.9 µM in the assay with LOX IMVI melanoma.

Consider `CCOC(=O)C(C)(C)Oc1ccc2c(=O)cc(-c3ccccc3)oc2c1`, for which the TGI in the assay with OVCAR-8 ovarian is 51.4 µM; with KM12 colon, 35.9 µM; in the assay on NCI-H226 lung, 47 µM; in the assay with MOLT-4 leukemia it was 32.5 µM; in the assay on UO-31 renal it was more than 100 µM; with 786-0 renal, 37.7 µM. In addition, the TGI is more than 100 µM with TK-10 renal, 78.1 µM with RXF 393 renal and 37.1 µM in the assay on LOX IMVI melanoma.

Turning to `NCCCCCS(=O)(=O)O`, the TGI in the assay on OVCAR-8 ovarian, in the assay with KM12 colon, in the assay with MOLT-4 leukemia, in the assay with UO-31 renal, in the assay with 786-0 renal and in the assay on TK-10 renal was more than 100 µM throughout. For the same compound, the TGI in the assay on RXF 393 renal and with LOX IMVI melanoma was more than 100 µM throughout.

With `O=[N+]([O-])c1cccc([N+](=O)[O-])c1S(=O)(=O)c1ccccc1`, the TGI stood at 6.21 µM in the assay with OVCAR-8 ovarian; 32 µM in the assay with KM12 colon; 36.8 µM in the assay on NCI-H226 lung; 7.18 µM in the assay on HOP-92 NSCLC; 3.5 µM with UO-31 renal; 5.21 µM in the assay on 786-0 renal. In addition, the results for the TGI with TK-10 renal and in the assay on LOX IMVI melanoma were 30.2 µM and 3.7 µM, respectively.

For the compound `C=C(CN1CCN(c2ccccc2OC)CC1)c1ccc(C(=O)Nc2ccccc2N)cc1`, the GI50 in the assay with OVCAR-8 ovarian was 9.28 µM; in the assay with KM12 colon it was 3.32 µM; in the assay on HOP-92 NSCLC, 5.73 µM; in the assay with UO-31 renal, 7.93 µM; in the assay on 786-0 renal, 2.45 µM; in the assay with TK-10 renal, 1.2 µM. In addition, the GI50 with LOX IMVI melanoma was 0.243 µM. The TGI in the assay on OVCAR-8 ovarian came to 32.4 µM; in the assay with KM12 colon it was 11.6 µM; in the assay on HOP-92 NSCLC it was 44.5 µM; in the assay on UO-31 renal, 16.4 µM; with 786-0 renal it was 29.1 µM; in the assay on TK-10 renal, 9.07 µM. The same compound yielded a TGI in the assay with LOX IMVI melanoma of 1.42 µM.

In the case of `O=C(c1cc(O)ccc1O)c1ccccc1C(Cl)(Cl)Cl`, the TGI in the assay with OVCAR-8 ovarian, in the assay on KM12 colon, with NCI-H226 lung, in the assay on HOP-92 NSCLC, in the assay with MOLT-4 leukemia and in the assay with UO-31 renal was more than 100 µM throughout. Besides, the TGI in the assay with 786-0 renal, in the assay with TK-10 renal and with RXF 393 renal was more than 100 µM each time.

For `COC(=O)/C=C/C(=O)C1C(C(=O)OC)C2(C(=O)OC)CCC1(C(=O)OC)N2` (centres undefined), the TGI in the assay with OVCAR-8 ovarian, in the assay with KM12 colon, in the assay on MOLT-4 leukemia, in the assay with UO-31 renal, with 786-0 renal and in the assay with TK-10 renal was more than 100 µM throughout. For the same compound, the TGI in the assay on RXF 393 renal was more than 100 µM.

`CCC1C(C)c2c([nH]c3ccccc23)C2C(=O)N(c3ccccc3)C(=O)C21` (centres undefined): the TGI in the assay with OVCAR-8 ovarian is 28.7 µM; with KM12 colon, 32.1 µM; in the assay with MOLT-4 leukemia it was 49.3 µM; in the assay on 786-0 renal it was 34.5 µM; in the assay with TK-10 renal, 89.2 µM; in the assay with RXF 393 renal, 26 µM. The TGI in the assay on LOX IMVI melanoma was found to be 31.8 µM.

Consider `Cc1cnc[nH]c1=O`, for which the TGI in the assay on OVCAR-8 ovarian, with KM12 colon, in the assay on NCI-H226 lung, in the assay with MOLT-4 leukemia, in the assay with UO-31 renal and in the assay with 786-0 renal was more than 100 µM in each case. Besides, the TGI in the assay with TK-10 renal and with LOX IMVI melanoma was more than 100 µM each time.

The values are drawn from PubChem BioAssay (NCI).
